Laboratory results from ChEMBL document CHEMBL1201862, “PubChem BioAssay data set” (2004).
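Each compound was tested at five concentrations against cells in 96-well plates for 48 hours. GI50 marks 50% less growth.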 Active and inactive are the calls of the source. Cut-off read from the data, not from the text of the source: active = GI50 up to about 1.1 µM and inactive = higher.

How the values were obtained:
Test in all cases: NCI tumour cell line growth inhibition, 48 h
A498 = system: A498
CCRF-CEM = system: CCRF-CEM
COLO 205 = system: COLO 205
EKVX = system: EKVX
LOX IMVI = system: LOX IMVI
M14 = system: M14
MCF7 = system: MCF7
MDA-MB-231 = system: MDA-MB-231
MDA-MB-435 = system: MDA-MB-435
NCI-H226 = system: NCI-H226
OVCAR-4 = system: OVCAR-4
PC-3 = system: PC-3
RPMI-8226 = system: RPMI-8226
RXF 393 = system: RXF 393
SF-268 = system: SF-268
SF-539 = system: SF-539
SK-OV-3 = system: SK-OV-3
SW-620 = system: SW-620
T47D = system: T47D
UO-31 = system: UO-31

Row | Structure (SMILES) | GI50 (A498) | GI50 (CCRF-CEM) | GI50 (COLO 205) | GI50 (EKVX) | GI50 (LOX IMVI) | GI50 (M14) | GI50 (MCF7) | GI50 (MDA-MB-231) | GI50 (MDA-MB-435) | GI50 (NCI-H226) | GI50 (OVCAR-4) | GI50 (PC-3) | GI50 (RPMI-8226) | GI50 (RXF 393) | GI50 (SF-268) | GI50 (SF-539) | GI50 (SK-OV-3) | GI50 (SW-620) | GI50 (T47D) | GI50 (UO-31)
1 | CN(Cc1cc(C(C)(C)C)cc(Br)c1O)Cc1cc(C(C)(C)C)cc(Br)c1O | 2.75 µM (inactive) | 2.7 µM (inactive) | 12.2 µM (inactive) | 3.83 µM (inactive) | 3.77 µM (inactive) | 4.28 µM (inactive) | 1.56 µM (inactive) | 2.15 µM (inactive) | 4.43 µM (inactive) | 4.18 µM (inactive) | 5.08 µM (inactive) | 2.96 µM (inactive) | 2.01 µM (inactive) | 2.21 µM (inactive) | 3.66 µM (inactive) | 2.74 µM (inactive) | 9.51 µM (inactive) | 3.48 µM (inactive) | 3.5 µM (inactive) | 3.61 µM (inactive)
2 | N#Cc1ccc(/N=N/N2CCCC2)cc1 | 96.8 µM (inactive) | 43.7 µM (inactive) | > 100 µM (inactive) | 63.8 µM (inactive) | > 100 µM (inactive) | > 100 µM (inactive) | > 100 µM (inactive) | > 100 µM (inactive) | > 100 µM (inactive) | > 100 µM (inactive) | 98.9 µM (inactive) | 83.8 µM (inactive) | 40.2 µM (inactive) | > 100 µM (inactive) | > 100 µM (inactive) | > 100 µM (inactive) | > 100 µM (inactive) | > 100 µM (inactive) | > 100 µM (inactive) | 69.8 µM (inactive)
3 | CCOC(=O)NC(C(=O)OCC)(N1CCN(c2cc3c(cc2F)c(=O)c(C(=O)O)cn3CC)CC1)C(F)(F)F (stereo not given) | > 100 µM (inactive) | > 100 µM (inactive) | > 100 µM (inactive) | 13.2 µM (inactive) | > 100 µM (inactive) | > 100 µM (inactive) | > 100 µM (inactive) | > 100 µM (inactive) | 26.1 µM (inactive) | > 100 µM (inactive) | > 100 µM (inactive) | > 100 µM (inactive) | > 100 µM (inactive) | > 100 µM (inactive) | > 100 µM (inactive) | > 100 µM (inactive) | > 100 µM (inactive) | > 100 µM (inactive) | > 100 µM (inactive) | > 100 µM (inactive)
4 | C=C1C(=O)OC2C1C(OC(=O)/C(C)=C/C)CC1(C)C(=O)CCC(=C)C21 (stereo not given) | 13.8 µM (inactive) | 2.3 µM (inactive) | 5.33 µM (inactive) | 16.3 µM (inactive) | 3.94 µM (inactive) | 5.26 µM (inactive) | 4.49 µM (inactive) | 17.9 µM (inactive) | 8.2 µM (inactive) | 20.7 µM (inactive) | 11 µM (inactive) | 11 µM (inactive) | 1.95 µM (inactive) | 2.83 µM (inactive) | 10.7 µM (inactive) | 11.3 µM (inactive) | 25.2 µM (inactive) | 2.93 µM (inactive) | 13.1 µM (inactive) | 6.55 µM (inactive)
5 | C/C=C(\C)CC/C=C/CO[Si](C)(C)C(C)(C)C | > 100 µM (inactive) | 24.7 µM (inactive) | > 100 µM (inactive) | > 100 µM (inactive) | 22.3 µM (inactive) | > 100 µM (inactive) | 40.1 µM (inactive) | > 100 µM (inactive) | > 100 µM (inactive) | > 100 µM (inactive) | > 100 µM (inactive) | > 100 µM (inactive) | > 100 µM (inactive) | > 100 µM (inactive) | > 100 µM (inactive) | > 100 µM (inactive) | > 100 µM (inactive) | > 100 µM (inactive) | > 100 µM (inactive) | > 100 µM (inactive)
6 | O=C(/C=C/c1cccc(Br)c1)N1CCN(CCOC(c2ccccc2)c2ccccc2)CC1 | 44.9 µM (inactive) | 17.1 µM (inactive) | 17.5 µM (inactive) | > 100 µM (inactive) | 24.2 µM (inactive) | 62.2 µM (inactive) | 35 µM (inactive) | > 100 µM (inactive) | 38.7 µM (inactive) | 45 µM (inactive) | 63.2 µM (inactive) | 44.1 µM (inactive) | 12.2 µM (inactive) | 35.7 µM (inactive) | > 100 µM (inactive) | 18.4 µM (inactive) | > 100 µM (inactive) | 50.8 µM (inactive) | 23.6 µM (inactive) | 25.4 µM (inactive)
7 | CC(C)(C)N1C=[N+](C(C)(C)C)CC1 | 38.7 µM (inactive) | > 100 µM (inactive) | > 100 µM (inactive) | > 100 µM (inactive) | > 100 µM (inactive) | > 100 µM (inactive) | > 100 µM (inactive) | > 100 µM (inactive) | > 100 µM (inactive) | > 100 µM (inactive) | > 100 µM (inactive) | > 100 µM (inactive) | > 100 µM (inactive) | > 100 µM (inactive) | > 100 µM (inactive) | > 100 µM (inactive) | > 100 µM (inactive) | > 100 µM (inactive) | > 100 µM (inactive) | > 100 µM (inactive)
8 | CC(N)/C(N)=N/O (stereo not given) | > 100 µM (inactive) | > 100 µM (inactive) | > 100 µM (inactive) | > 100 µM (inactive) | > 100 µM (inactive) | > 100 µM (inactive) | > 100 µM (inactive) | > 100 µM (inactive) | > 100 µM (inactive) | > 100 µM (inactive) | > 100 µM (inactive) | > 100 µM (inactive) | > 100 µM (inactive) | > 100 µM (inactive) | > 100 µM (inactive) | > 100 µM (inactive) | > 100 µM (inactive) | > 100 µM (inactive) | > 100 µM (inactive) | > 100 µM (inactive)
9 | Cc1cccc2sc(NC(=O)c3cc([N+](=O)[O-])ccc3Cl)nc12 | 17.3 µM (inactive) | 0.0817 µM (active) | 5.96 µM (inactive) | 11.4 µM (inactive) | 2.01 µM (inactive) | 1.77 µM (inactive) | 1.68 µM (inactive) | 4.73 µM (inactive) | 2.67 µM (inactive) | 5.71 µM (inactive) | 8.51 µM (inactive) | 4.14 µM (inactive) | 3.31 µM (inactive) | 2.01 µM (inactive) | 3.13 µM (inactive) | 2.36 µM (inactive) | 13.1 µM (inactive) | 2.42 µM (inactive) | 4.35 µM (inactive) | 2.34 µM (inactive)
10 | CC(=O)OCC1OC(OC2CC3C(C)(C)C(O)CC[C@]3(C)C3CCC45CC4(CCC5[C@@H](C)CC(O)C(O)C(C)(C)O)[C@]23C)C(O)C(O)C1O (stereo not given in full) | > 10 µM (inactive) | > 10 µM (inactive) | > 10 µM (inactive) | > 10 µM (inactive) | > 10 µM (inactive) | > 10 µM (inactive) | > 10 µM (inactive) | > 10 µM (inactive) | > 10 µM (inactive) | > 10 µM (inactive) | > 10 µM (inactive) | > 10 µM (inactive) | > 10 µM (inactive) | > 10 µM (inactive) | > 10 µM (inactive) | > 10 µM (inactive) | > 10 µM (inactive) | > 10 µM (inactive) | > 10 µM (inactive) | > 10 µM (inactive)
